In patent US20240000872A1, “NOVEL BACTERIOPHAGE THAT LYSES ACINETOBACTER GENUS BACTERIA HAVING RESISTANCE TO ANTIBIOTICS” (priority 2020, published 2024):

System: Acinetobacter baumannii strains
Test: Antibiotic susceptibility test (CLSI disk diffusion test method, read per CLSI 2016); on antibiotic susceptibility S/I/R: key: ‘S’ means susceptible; ‘I’ means intermediate; ‘R’ means resistant; on antibiotic susceptibility class: key: ‘S’ means susceptible; ‘I’ means intermediate; ‘R’ means resistant; on susceptibility category (S/I/R): key: ‘S’ means susceptible; ‘I’ means intermediate; ‘R’ means resistant
Format: cell-based
Set-up: antibiotic susceptibility test value / susceptibility test value (number given before S/I/R) / antibiotic susceptibility value: unit not given here

## colistin
Host strain YMC14/01/C29
  antibiotic susceptibility class: S
  antibiotic susceptibility test value: 0.5
Host strain YMC14/01/IP122
  antibiotic susceptibility class: S
  antibiotic susceptibility test value: 0.5
Host strain YMC14/01/L8
  antibiotic susceptibility class: S
  antibiotic susceptibility test value: 0.5
Host strain YMC14/01/P31
  antibiotic susceptibility class: S
  antibiotic susceptibility test value: 0.5
Host strain YMC14/01/P117
  antibiotic susceptibility class: S
  antibiotic susceptibility test value: 0.5
Host strain YMC14/01/P224
  antibiotic susceptibility class: S
  antibiotic susceptibility test value: 0.5
Host strain YMC14/01/P727
  antibiotic susceptibility class: S
  antibiotic susceptibility test value: 0.5
Host strain YMC14/01/P728
  antibiotic susceptibility class: S
  antibiotic susceptibility test value: 0.5
Host strain YMC14/01/R130
  antibiotic susceptibility class: S
  antibiotic susceptibility test value: 0.5
Host strain YMC14/01/R160
  antibiotic susceptibility class: S
  antibiotic susceptibility test value: 0.5
Host strain YMC14/01/R198
  antibiotic susceptibility class: S
  antibiotic susceptibility test value: 0.5
Host strain YMC14/01/R257
  antibiotic susceptibility class: S
  antibiotic susceptibility test value: 0.5
Host strain YMC14/01/R270
  antibiotic susceptibility class: S
  antibiotic susceptibility test value: 0.5
Host strain YMC14/01/R324
  antibiotic susceptibility class: S
  antibiotic susceptibility test value: 0.5
Host strain YMC14/01/R443
  antibiotic susceptibility class: S
  antibiotic susceptibility test value: 0.5
Host strain YMC14/01/R451
  antibiotic susceptibility class: S
  antibiotic susceptibility test value: 0.5
Host strain YMC14/01/R560
  antibiotic susceptibility class: S
  antibiotic susceptibility test value: 0.5
Host strain YMC14/01/R617
  antibiotic susceptibility class: S
  antibiotic susceptibility test value: 0.5
Host strain YMC14/01/R671
  antibiotic susceptibility class: S
  antibiotic susceptibility test value: 0.5
Host strain YMC14/01/R732
  antibiotic susceptibility class: S
  antibiotic susceptibility test value: 0.5
Host strain YMC14/01/R767
  antibiotic susceptibility class: S
  antibiotic susceptibility test value: 0.5
Host strain YMC14/01/R904
  antibiotic susceptibility class: S
  antibiotic susceptibility test value: 0.5
Host strain YMC14/01/R905
  antibiotic susceptibility class: S
  antibiotic susceptibility test value: 0.5
Host strain YMC14/01/R921
  antibiotic susceptibility class: S
  antibiotic susceptibility test value: 0.5
Host strain YMC14/01/R941
  antibiotic susceptibility class: S
  antibiotic susceptibility test value: 0.5
Host strain YMC14/01/R958
  antibiotic susceptibility class: S
  antibiotic susceptibility test value: 0.5
Host strain YMC14/01/R1006
  antibiotic susceptibility class: S
  antibiotic susceptibility test value: 0.5
Host strain YMC14/01/R1199
  antibiotic susceptibility class: S
  antibiotic susceptibility test value: 0.5
Host strain YMC14/01/R1659
  antibiotic susceptibility class: S
  antibiotic susceptibility test value: 0.5
Host strain YMC14/01/R1722
  antibiotic susceptibility class: S
  antibiotic susceptibility test value: 0.5
Host strain YMC14/01/R1752
  antibiotic susceptibility class: S
  antibiotic susceptibility test value: 0.5
Host strain YMC14/01/R2429
  antibiotic susceptibility class: S
  antibiotic susceptibility test value: 0.5
Host strain YMC14/01/R2572
  antibiotic susceptibility class: S
  antibiotic susceptibility test value: 0.5
Host strain YMC14/01/R2855
  antibiotic susceptibility class: S
  antibiotic susceptibility test value: 0.5
Host strain YMC14/01/R2945
  antibiotic susceptibility class: S
  antibiotic susceptibility test value: 0.5
Host strain YMC14/01/R3007
  antibiotic susceptibility class: S
  antibiotic susceptibility test value: 0.5
Host strain YMC14/01/R3129
  antibiotic susceptibility class: S
  antibiotic susceptibility test value: 0.5
Host strain YMC14/01/R3317
  antibiotic susceptibility class: S
  antibiotic susceptibility test value: 0.5
Host strain YMC14/01/R3474
  antibiotic susceptibility class: S
  antibiotic susceptibility test value: 0.5
Host strain YMC14/01/R3574
  antibiotic susceptibility class: S
  antibiotic susceptibility test value: 0.5
Host strain YMC14/01/U313
  antibiotic susceptibility class: S
  antibiotic susceptibility test value: 0.5
Host strain YMC14/01/U318
  antibiotic susceptibility class: S
  antibiotic susceptibility test value: 0.5
Host strain YMC14/02/L18
  antibiotic susceptibility class: S
  antibiotic susceptibility test value: 0.5
Host strain YMC14/02/P47
  antibiotic susceptibility class: S
  antibiotic susceptibility test value: 0.5
Host strain YMC14/02/R1860
  antibiotic susceptibility class: S
  antibiotic susceptibility test value: 0.5
Host strain YMC14/02/R2417
  antibiotic susceptibility class: S
  antibiotic susceptibility test value: 0.5
Host strain YMC14/02/R2599
  antibiotic susceptibility class: S
  antibiotic susceptibility test value: 0.5
Host strain YMC14/02/R2668
  antibiotic susceptibility class: S
  antibiotic susceptibility test value: 0.5
Host strain YMC14/02/R2758
  antibiotic susceptibility class: S
  antibiotic susceptibility test value: 0.5
Host strain YMC14/02/R2781
  antibiotic susceptibility class: S
  antibiotic susceptibility test value: 0.5
Host strain YMC14/02/R3106
  antibiotic susceptibility class: S
  antibiotic susceptibility test value: 0.5
Host strain YMC14/02/R3419
  antibiotic susceptibility class: S
  antibiotic susceptibility test value: 0.5
Host strain YMC14/02/U1607
  antibiotic susceptibility class: S
  antibiotic susceptibility test value: 0.5
Host strain YMC14/03/L9
  antibiotic susceptibility class: S
  antibiotic susceptibility test value: 0.5
Host strain YMC14/03/P471
  antibiotic susceptibility class: S
  antibiotic susceptibility test value: 0.5
Host strain YMC14/03/R122
  antibiotic susceptibility class: S
  antibiotic susceptibility test value: 0.5
Host strain YMC14/03/R217
  antibiotic susceptibility class: S
  antibiotic susceptibility test value: 0.5
Host strain YMC14/03/R380
  antibiotic susceptibility class: S
  antibiotic susceptibility test value: 0.5
Host strain YMC14/03/R618
  antibiotic susceptibility class: S
  antibiotic susceptibility test value: 0.5
Host strain YMC14/03/R2144
  antibiotic susceptibility class: S
  antibiotic susceptibility test value: 0.5
Host strain YMC14/03/U4616
  antibiotic susceptibility class: S
  antibiotic susceptibility test value: 0.5
Host strain YMC14/04/R1078
  antibiotic susceptibility class: S
  antibiotic susceptibility test value: 0.5
Host strain YMC14/04/R1080
  antibiotic susceptibility class: S
  antibiotic susceptibility test value: 0.5
Host strain YMC14/06/R2359
  antibiotic susceptibility S/I/R: R
  antibiotic susceptibility value: 16
  susceptibility category (S/I/R): R
  susceptibility test value (number given before S/I/R): 16
Host strain YMC14/08/R1169
  antibiotic susceptibility S/I/R: R
  antibiotic susceptibility value: 16
  susceptibility category (S/I/R): R
  susceptibility test value (number given before S/I/R): 16
Host strain YMC14/08/T90
  antibiotic susceptibility S/I/R: R
  antibiotic susceptibility value: 16
  susceptibility category (S/I/R): R
  susceptibility test value (number given before S/I/R): 16
Host strain YMC15/02/R436
  antibiotic susceptibility S/I/R: R
  antibiotic susceptibility value: 8
  susceptibility category (S/I/R): R
  susceptibility test value (number given before S/I/R): 8
Host strain YMC15/02/T28
  antibiotic susceptibility S/I/R: R
  antibiotic susceptibility value: 16
  susceptibility category (S/I/R): R
  susceptibility test value (number given before S/I/R): 16
Host strain YMC15/03/R1604
  antibiotic susceptibility S/I/R: R
  antibiotic susceptibility value: 16
  susceptibility category (S/I/R): R
  susceptibility test value (number given before S/I/R): 16
Host strain YMC15/09/R1869
  antibiotic susceptibility S/I/R: R
  antibiotic susceptibility value: 16
  susceptibility category (S/I/R): R
  susceptibility test value (number given before S/I/R): 16
Host strain YMC16/01/P11
  antibiotic susceptibility S/I/R: S
  antibiotic susceptibility value: 0.5
  susceptibility category (S/I/R): S
  susceptibility test value (number given before S/I/R): 0.5
Host strain YMC16/01/R123
  antibiotic susceptibility S/I/R: S
  antibiotic susceptibility value: 0.5
  susceptibility category (S/I/R): S
  susceptibility test value (number given before S/I/R): 0.5
Host strain YMC16/01/R198
  antibiotic susceptibility S/I/R: S
  antibiotic susceptibility value: 0.5
  susceptibility category (S/I/R): S
  susceptibility test value (number given before S/I/R): 0.5
Host strain YMC16/01/R353
  antibiotic susceptibility S/I/R: S
